Experimental data reported in patent US20240279283A1, “CYCLIC PEPTIDE ANTIBIOTICS” (priority 2021, published 2024).
Bridge positions count the residues as written; N and C are the ends. Square brackets hold non-standard residues; d marks the D form. Peptide text beside a SMILES is read from it. 1Nal = N[C@@H](Cc1cccc2ccccc12)C(=O)O; His(π-Me) = Cn1cncc1C[C@H](N)C(=O)O; NMeF = CN[C@@H](Cc1ccccc1)C(=O)O; Abu = CC[C@H](N)C(=O)O; Aib = CC(C)(N)C(=O)O

What was measured:
E. coli BW25113 = experiment: Minimum Inhibitory Concentration (MIC) determination, E. coli BW25113; type: cell-based; set-up: unit not given here; conditions: LB broth, 5×10^5 CFU/ml, 37° C., 18 hours, scored by eye
Method: (§1) MICs were determined by performing two-fold serial dilutions of peptides in LB broth to a final volume of 0.1 ml in round-bottom 96-well assay plates (Corning Life Sciences No 3788). Peptides were initially resuspended in 100% DMSO to 10 mM and subsequently diluted in LB medium to the appropriate concentration. Each well was inoculated with 5×10^5 CFU/ml of the screening stain and incubated at 37° C. without agitation for 18 hours. Plates were scored by eye, and the lowest compound concentration preventing visible growth was determined to be the MIC.

E. coli 25922 IMP = experiment: Minimum Inhibitory Concentration (MIC) determination, E. coli 25922 IMP; type: cell-based; conditions: LB broth, 5×10^5 CFU/ml, 37° C., 18 hours, scored by eye
Method: as §1

SMILES | MIC E. coli BW25113 WUXI::MIC (E. coli BW25113) | MIC E. coli 25922 IMP WUXI::MIC (E. coli 25922 IMP)
CC[C@@H]1NC(=O)[C@H](Cc2c[nH]cn2)NC(=O)[C@H](Cc2ccccc2)N(C)C(=O)[C@H](CC)NC(=O)[C@H](CO)NC(=O)CNC(=O)[C@H](Cc2c[nH]cn2)NC(=O)[C@H](Cc2cccc3ccccc23)NC(=O)[C@H](C(C)C)NC(=O)[C@H](Cc2ccccc2)NC(=O)CSC[C@@H](C(=O)NCC(N)=O)NC(=O)[C@H](Cc2cncn2C)NC1=O [Compound 8, (3R,6S,9S,12S,15S,18S,21S,27S,30S, 33S,36S)-N-(2-amino-2-oxo-ethyl)-15,36-dibenzyl-9,18-diethyl-21-(hydroxymethyl)-12,27-bis(1H-imidazol-4-ylmethyl)-33-isopropyl-16-methyl-6-[(3-methylimidazol-4-yl)methyl]-30-(1-naphthylmethyl)-5,8,11,14,17,20,23,26,29,32,35,38-dodecaoxo-1-thia-4,7,10,13,16,19,22,25,28,31,34,37-dodecazacyclononatriacontane-3-carboxamide] ({CH2CO}-FV[1Nal]HGS[Abu][NMeF]H[Abu][His(π-Me)]CG-NH2; thioether N-12) | >32 | 4
CC(C)[C@@H]1NC(=O)[C@H](Cc2ccccc2)NC(=O)CSC[C@@H](C(=O)NCC(N)=O)NC(=O)[C@H](Cc2cncn2C)NC(=O)[C@H](CCCNC(=N)N)NC(=O)[C@H](Cc2cnc[nH]2)NC(=O)[C@H](Cc2ccccc2)N(C)C(=O)[C@H](CCCNC(=N)N)NC(=O)[C@H](CO)NC(=O)CNC(=O)[C@H](Cc2cnc[nH]2)NC(=O)[C@H](Cc2c[nH]c3ccccc23)NC1=O (racemic) [Compound 9, rac-(3R,6S,9S,12S,15S,18S,21S,27S,30S, 33S,36S)-N-(2-amino-2-oxo-ethyl)-15,36-dibenzyl-9,18-bis(3-guanidinopropyl)-21-(hydroxymethyl)-12,27-bis(1H-imidazol-5-ylmethyl)-30-(1H-indol-3-ylmethyl)-33-isopropyl-16-methyl-6-[(3-methylimidazol-4-yl)methyl]-5,8,11,14,17,20,23,26,29,32,35,38-dodecaoxo-1-thia-4,7,10,13,16,19,22,25,28,31,34,37-dodecazacyclononatriacontane-3-carboxamide] | 8 | 9.5367E−07
CC[C@H](C)[C@@H]1NC(=O)C(C)(C)NC(=O)[C@H](Cc2cncn2C)NC(=O)[C@H](Cc2ccccc2)NC(=O)CSC[C@@H](C(=O)NCC(N)=O)NC(=O)[C@H](Cc2ccc(O)cc2)NC(=O)[C@H](Cc2c[nH]c3ccccc23)NC(=O)[C@H](Cc2ccc(O)cc2)NC(=O)[C@H](Cc2cncn2C)NC(=O)[C@H](Cc2ccccc2)NC(=O)C(C)(C)NC(=O)[C@H](CCCNC(=N)N)NC(=O)[C@H](CCCCN)NC(=O)[C@H](CCCNC(=N)N)NC1=O [Compound 56] ({CH2CO}-F[His(π-Me)][Aib]IRKR[Aib]F[His(π-Me)]YWYCG-NH2; thioether N-14) | >32 | 8
CC[C@H](C)[C@@H]1NC(=O)C(C)(C)NC(=O)[C@H](Cc2cncn2C)NC(=O)[C@H](Cc2ccccc2)NC(=O)CSC[C@@H](C(=O)NCC(N)=O)NC(=O)[C@H](Cc2ccc(O)cc2)NC(=O)[C@H](Cc2c[nH]c3ccccc23)NC(=O)[C@H](Cc2ccc(O)cc2)NC(=O)[C@H](CCCNC(=N)N)NC(=O)[C@H](Cc2ccccc2)NC(=O)C(C)(C)NC(=O)[C@H](CCCNC(=N)N)NC(=O)[C@H](CCCCN)NC(=O)[C@H](CCCNC(=N)N)NC1=O [Compound 57] ({CH2CO}-F[His(π-Me)][Aib]IRKR[Aib]FRYWYCG-NH2; thioether N-14) | >32 | 2
CC[C@H](C)[C@@H]1NC(=O)[C@H]([C@@H](C)O)NC(=O)[C@H](Cc2cncn2C)NC(=O)[C@H](Cc2ccccc2)NC(=O)CSC[C@@H](C(=O)NCC(N)=O)NC(=O)[C@H](Cc2ccc(O)cc2)NC(=O)[C@H](Cc2c[nH]c3ccccc23)NC(=O)[C@H](Cc2ccc(O)cc2)NC(=O)[C@H](CCCNC(=N)N)NC(=O)[C@H](Cc2ccccc2)NC(=O)C(C)(C)NC(=O)[C@H](CCCNC(=N)N)NC(=O)[C@H](CCCCN)NC(=O)[C@H](CCCNC(=N)N)NC1=O [Compound 52] ({CH2CO}-F[His(π-Me)]TIRKR[Aib]FRYWYCG-NH2; thioether N-14) | 1 | 0.125
CC[C@@H]1NC(=O)[C@H](Cc2ccccc2)NC(=O)CSC[C@@H](C(=O)NCC(N)=O)NC(=O)[C@H](Cc2cncn2C)NC(=O)[C@H](CC)NC(=O)[C@H](Cc2c[nH]cn2)NC(=O)[C@H](Cc2ccccc2)N(C)C(=O)[C@H](CCCNC(=N)N)NC(=O)[C@H](CO)NC(=O)CNC(=O)[C@H](Cc2c[nH]cn2)NC(=O)[C@H](Cc2c[nH]c3ccccc23)NC1=O [Compound 4, (3R,6S,9S,12S,15S,18S,21S,27S,30S, 33S,36S)-N-(2-amino-2-oxo-ethyl)-15,36-dibenzyl-9,33-diethyl-18-(3-guanidinopropyl)-21-(hydroxymethyl)-12,27-bis(1H-imidazol-4-ylmethyl)-30-(1H-indol-3-ylmethyl)-16-methyl-6-[(3-methylimidazol-4-yl)methyl]-5,8,11,14,17,20,23,26,29,32,35,38-dodecaoxo-1-thia-4,7,10,13,16,19,22,25,28,31,34,37-dodecazacyclononatriacontane-3-carboxamide] ({CH2CO}-F[Abu]WHGSR[NMeF]H[Abu][His(π-Me)]CG-NH2; thioether N-12) | >32 | 0.128
CC[C@H](C)[C@@H]1NC(=O)[C@H]([C@@H](C)O)NC(=O)[C@H](Cc2cncn2C)NC(=O)[C@H](Cc2ccccc2)NC(=O)CSC[C@@H](C(=O)NCC(N)=O)NC(=O)[C@H](Cc2ccc(O)cc2)NC(=O)[C@H](Cc2c[nH]c3ccccc23)NC(=O)[C@H](Cc2ccc(O)cc2)NC(=O)[C@H](Cc2cncn2C)NC(=O)[C@H](Cc2ccccc2)NC(=O)C(C)(C)NC(=O)[C@H](CCCNC(=N)N)NC(=O)[C@H](CCCNC(=N)N)NC(=O)[C@H](CCCNC(=N)N)NC1=O [Compound 53] ({CH2CO}-F[His(π-Me)]TIRRR[Aib]F[His(π-Me)]YWYCG-NH2; thioether N-14) | 4 | 0.25
CC(C)[C@@H]1NC(=O)[C@H](Cc2ccccc2)NC(=O)CSC[C@@H](C(=O)NCC(N)=O)NC(=O)[C@H](Cc2cncn2C)NC(=O)[C@H](CCCNC(=N)N)NC(=O)[C@H](Cc2cnc[nH]2)NC(=O)[C@H](Cc2ccccc2)N(C)C(=O)[C@H](CCCNC(=N)N)NC(=O)[C@H](CO)NC(=O)CNC(=O)[C@H](Cc2c[nH]cn2)NC(=O)[C@H](Cc2cccc3ccccc23)NC1=O [Compound 6, (3R,6S,9S,12S,15S,18S,21S,27S,30S, 33S,36S)-N-(2-amino-2-oxo-ethyl)-15,36-dibenzyl-9,18-bis(3-guanidinopropyl)-21-(hydroxymethyl)-12,27-bis(1H-imidazol-4-ylmethyl)-33-isopropyl-16-methyl-6-[(3-methylimidazol-4-yl)methyl]-30-(1-naphthylmethyl)-5,8,11,14,17,20,23,26,29,32,35,38-dodecaoxo-1-thia-4,7,10,13,16,19,22,25,28,31,34,37-dodecazacyclononatriacontane-3-carboxamide] ({CH2CO}-FV[1Nal]HGSR[NMeF]HR[His(π-Me)]CG-NH2; thioether N-12) | 2 | <0.000125
CC[C@@H]1NC(=O)[C@H](Cc2ccccc2)NC(=O)CSC[C@@H](C(=O)NCC(N)=O)NC(=O)[C@H](Cc2cncn2C)NC(=O)[C@H](CCCNC(=N)N)NC(=O)[C@H](Cc2cnc[nH]2)NC(=O)[C@H](Cc2ccccc2)N(C)C(=O)[C@H](CCCNC(=N)N)NC(=O)[C@H](CO)NC(=O)CNC(=O)[C@H](Cc2c[nH]cn2)NC(=O)[C@H](Cc2c[nH]c3ccccc23)NC1=O [Compound 7, (3R,6S,9S,12S,15S,18S,21S,27S,30S, 33S,36S)-N-(2-amino-2-oxo-ethyl)-15,36-dibenzyl-33-ethyl-9,18-bis(3-guanidinopropyl)-21-(hydroxymethyl)-12,27-bis(1H-imidazol-4-ylmethyl)-30-(1H-indol-3-ylmethyl)-16-methyl-6-[(3-methylimidazol-4-yl)methyl]-5,8,11,14,17,20,23,26,29,32,35,38-dodecaoxo-1-thia-4,7,10,13,16,19,22,25,28,31,34,37-dodecazacyclononatriacontane-3-carboxamide] ({CH2CO}-F[Abu]WHGSR[NMeF]HR[His(π-Me)]CG-NH2; thioether N-12) | 2 | 0.0005
CC[C@@H]1NC(=O)[C@H](Cc2ccccc2)NC(=O)CSC[C@@H](C(=O)NCC(N)=O)NC(=O)[C@H](Cc2cncn2C)NC(=O)[C@H](CCCNC(=N)N)NC(=O)[C@H](Cc2cnc[nH]2)NC(=O)[C@H](Cc2ccccc2)N(C)C(=O)[C@H](CCCNC(=N)N)NC(=O)[C@H](CO)NC(=O)CNC(=O)[C@H](Cc2cnc[nH]2)NC(=O)[C@H](Cc2cccc3ccccc23)NC1=O (racemic) [Compound 10, rac-(3R,6S,9S,12S,15S,18S,21S,27S,30S,3 3S,36S)-N-(2-amino-2-oxo-ethyl)-15,36-dibenzyl-33-ethyl-9,18-bis(3-guanidinopropyl)-21-(hydroxymethyl)-12,27-bis(1H-imidazol-5-ylmethyl)-16-methyl-6-[(3-methylimidazol-4-yl)methyl]-30-(1-naphthylmethyl)-5,8,11,14,17,20,23,26,29,32,35,38-dodecaoxo-1-thia-4,7,10,13,16,19,22,25,28,31,34,37-dodecazacyclononatriacontane-3-carboxamide] | 8 | 2.3842E−07
